# Measurements taken from ChEMBL document CHEMBL4196012 (Eur J Med Chem, 2018).
# Assays:
# Escherichia coli [1] = experiment: Antibacterial activity against Escherichia coli ATCC 8739 by agar dilution method; format: functional
# Klebsiella pneumoniae [2] = experiment: Antibacterial activity against Klebsiella pneumoniae ATCC 10031 by agar dilution method; format: functional
# Pseudomonas aeruginosa [3] = experiment: Antibacterial activity against Pseudomonas aeruginosa ATCC 9027 by agar dilution method; format: functional
# Bacillus subtilis [4] = experiment: Antibacterial activity against Bacillus subtilis PTCC 1023 by agar dilution method; format: functional
# Staphylococcus aureus [5] = experiment: Antibacterial activity against Staphylococcus aureus ATCC 6538P by agar dilution method; format: functional
# [6] = tested on: Staphylococcus epidermidis; experiment: Antibacterial activity against Staphylococcus epidermidis ATCC 12228 by agar dilution method; format: functional
# Escherichia coli [7] = experiment: Potency index, ratio of ampicillin MIC to compound MIC for antibacterial activity against Escherichia coli ATCC 25922; format: functional
# [8] = tested on: Yersinia pseudotuberculosis; experiment: Potency index, ratio of ampicillin MIC to compound MIC for antibacterial activity against Yersinia pseudotuberculosis ATCC 911; format: functional
# Pseudomonas aeruginosa [9] = experiment: Potency index, ratio of ampicillin MIC to compound MIC for antibacterial activity against Pseudomonas aeruginosa ATCC 43288; format: functional
# Enterococcus faecalis [10] = experiment: Potency index, ratio of ampicillin MIC to compound MIC for antibacterial activity against Enterococcus faecalis ATCC 29212; format: functional
# Staphylococcus aureus [11] = experiment: Potency index, ratio of ampicillin MIC to compound MIC for antibacterial activity against Staphylococcus aureus ATCC 25923; format: functional
# Bacillus cereus [12] = experiment: Potency index, ratio of ampicillin MIC to compound MIC for antibacterial activity against Bacillus cereus 709 Roma; format: functional
# [13] = tested on: Mycolicibacterium smegmatis; experiment: Potency index, ratio of ampicillin MIC to compound MIC for antibacterial activity against Mycobacterium smegmatis ATCC 607; format: functional
# Candida albicans = experiment: Potency index, ratio of ampicillin MIC to compound MIC for antifungal activity against Candida albicans ATCC 60193; format: functional
# Saccharomyces cerevisiae = experiment: Potency index, ratio of ampicillin MIC to compound MIC for antifungal activity against Saccharomyces cerevisiae RSKK 251; format: functional
# [14] = tested on: Yersinia pseudotuberculosis; experiment: Antibacterial activity against Yersinia pseudotuberculosis ATCC 911 after 18 to 24 hrs by double microdilution method; format: functional
# Enterococcus faecalis [15] = experiment: Antibacterial activity against Enterococcus faecalis ATCC 29212 after 18 to 24 hrs by double microdilution method; format: functional
# Staphylococcus aureus [16] = experiment: Antibacterial activity against Staphylococcus aureus ATCC 25923 after 18 to 24 hrs by double microdilution method; format: functional
# Bacillus cereus [17] = experiment: Antibacterial activity against Bacillus cereus 709 Roma after 18 to 24 hrs by double microdilution method; format: functional
# [18] = tested on: Mycolicibacterium smegmatis; experiment: Antibacterial activity against Mycobacterium smegmatis ATCC 607 after 48 to 72 hrs by double microdilution method; format: functional
# Escherichia coli [19] = experiment: Antibacterial activity against Escherichia coli ATCC 35218 after 18 to 24 hrs by double microdilution method; format: functional
# Pseudomonas aeruginosa [20] = experiment: Antibacterial activity against Pseudomonas aeruginosa ATCC 10145 after 18 to 24 hrs by double microdilution method; format: functional
# Staphylococcus aureus [21] = experiment: Antibacterial activity against methicillin-sensitive Staphylococcus aureus ATCC 25923 after 18 hrs by broth microdilution method; format: functional; settings: ATCC 25923, 18 h
# Staphylococcus aureus [22] = experiment: Antibacterial activity against methicillin-sensitive Staphylococcus aureus ATCC 6538 after 18 hrs by broth microdilution method; format: functional; settings: ATCC 6538, 18 h
# Staphylococcus aureus [23] = experiment: Antibacterial activity against methicillin-resistant Staphylococcus aureus MIKROBANK 14001 by broth microdilution method; format: functional
# [24] = tested on: Staphylococcus epidermidis; experiment: Antibacterial activity against Staphylococcus epidermidis ATCC 12228 after 18 hrs by broth microdilution method; format: functional; settings: ATCC 12228, 18 h
# Bacillus subtilis [25] = experiment: Antibacterial activity against Bacillus subtilis ATCC 6638 after 18 hrs by broth microdilution method; format: functional; settings: ATCC 6638, 18 h
# Micrococcus luteus = experiment: Antibacterial activity against Micrococcus luteus ATCC 10240 after 18 hrs by broth microdilution method; format: functional; settings: ATCC 10240, 18 h
# Bacillus cereus [26] = experiment: Antibacterial activity against Bacillus cereus ATCC 10876 after 18 hrs by broth microdilution method; format: functional; settings: ATCC 10876, 18 h
# Escherichia coli [27] = experiment: Antibacterial activity against Escherichia coli ATCC […] by CLSI agar dilution method; format: functional
# [28] = tested on: Staphylococcus epidermidis; experiment: Antibacterial activity against Staphylococcus epidermidis ATCC 12228 by CLSI agar dilution method; format: functional
# [29] = tested on: Staphylococcus epidermidis; experiment: Antibacterial activity against methicillin-sensitive Staphylococcus epidermidis by CLSI agar dilution method; format: functional
# Staphylococcus aureus [30] = experiment: Antibacterial activity against Staphylococcus aureus ATCC 29213 by CLSI agar dilution method; format: functional
# Staphylococcus aureus [31] = experiment: Antibacterial activity against methicillin-sensitive Staphylococcus aureus by CLSI agar dilution method; format: functional
# Klebsiella pneumoniae [32] = experiment: Antibacterial activity against Klebsiella pneumoniae ATCC […] by CLSI agar dilution method; format: functional
# Escherichia coli [33] = experiment: Antibacterial activity against Escherichia coli ATCC 25922 after 18 to 24 hrs by double microdilution method; format: functional
# Pseudomonas aeruginosa [34] = experiment: Antibacterial activity against Pseudomonas aeruginosa ATCC 43288 after 18 to 24 hrs by double microdilution method; format: functional
# [35] = Partition coefficient, log P of the compound; format: physicochemical; settings: octanol/water
# Bacillus subtilis [36] = experiment: Antibacterial activity against Bacillus subtilis NCDC 71 after overnight incubation by single disc method; format: functional
# Escherichia coli [37] = experiment: Antibacterial activity against Escherichia coli NCDC 134 after overnight incubation by single disc method; format: functional
# Pseudomonas aeruginosa [38] = experiment: Antibacterial activity against Pseudomonas aeruginosa NCDC105 after overnight incubation by single disc method; format: functional
# Paenibacillus polymyxa = experiment: Antibacterial activity against Paenibacillus polymyxa NCDC 64 after overnight incubation by single disc method; format: functional
# Staphylococcus aureus [39] = experiment: Antibacterial activity against Staphylococcus aureus NCDC 110 after overnight incubation by single disc method; format: functional
structure (smiles),measurement,setting,value
O=C(O)c1cn(C2CC2)c2cc(N3CCN(c4nnc(-c5ccc([N+](=O)[O-])s5)s4)CC3)c(F)cc2c1=O,MIC,Escherichia coli [1],2 to 64 µg/mL
same,MIC,Klebsiella pneumoniae [2],2 to 64 µg/mL
same,MIC,Pseudomonas aeruginosa [3],2 to 64 µg/mL
same,MIC,Bacillus subtilis [4],0.008 to 0.015 µg/mL
same,MIC,Staphylococcus aureus [5],0.008 to 0.015 µg/mL
same,MIC,[6],0.008 to 0.015 µg/mL
O=C(O)c1cn(C2CC2)c2cc(N3CCN(Cn4nc(CN5CCSCC5)oc4=S)CC3)c(F)cc2c1=O,Ratio,Escherichia coli [7],>41
same,Ratio,[8],>41
same,Ratio,Pseudomonas aeruginosa [9],>41
same,Ratio,Enterococcus faecalis [10],>41
same,Ratio,Staphylococcus aureus [11],>41
same,Ratio,Bacillus cereus [12],>41
same,Ratio,[13],>41
same,Ratio,Candida albicans,>41
same,Ratio,Saccharomyces cerevisiae,>41
CCn1c(CN2CCN(c3ccccc3OC)CC2)nn(CN2CCN(c3cc4c(cc3F)c(=O)c(C(=O)O)cn4C3CC3)CC2)c1=S,MIC,[14],< 0.24 µg/mL
same,MIC,Enterococcus faecalis [15],< 0.24 µg/mL
same,MIC,Staphylococcus aureus [16],< 0.24 µg/mL
same,MIC,Bacillus cereus [17],< 0.24 µg/mL
same,MIC,[18],< 0.24 µg/mL
same,MIC,Escherichia coli [19],< 0.24 µg/mL
same,MIC,Pseudomonas aeruginosa [20],< 0.24 µg/mL
O=C(O)c1cn(C2CC2)c2cc(N3CCN(Cn4nc(-c5cccc(O)c5)n(Cc5ccc(Br)cc5Cl)c4=S)CC3)c(F)cc2c1=O,MIC,Staphylococcus aureus [21],0.01 to 1.32 µM
same,MIC,Staphylococcus aureus [22],0.01 to 1.32 µM
same,MIC,Staphylococcus aureus [23],0.01 to 1.32 µM
same,MIC,[24],0.01 to 1.32 µM
same,MIC,Bacillus subtilis [25],0.01 to 1.32 µM
same,MIC,Micrococcus luteus,0.01 to 1.32 µM
same,MIC,Bacillus cereus [26],0.01 to 1.32 µM
Cn1c([N+](=O)[O-])cnc1-c1nnc(N2CCN(c3cc4c(cc3F)c(=O)c(C(=O)O)cn4C3CC3)CC2)s1,MIC,Escherichia coli [1],2 to 64 µg/mL
same,MIC,Klebsiella pneumoniae [2],2 to 64 µg/mL
same,MIC,Pseudomonas aeruginosa [3],2 to 64 µg/mL
same,MIC,Bacillus subtilis [4],0.008 to 0.015 µg/mL
same,MIC,Staphylococcus aureus [5],0.008 to 0.015 µg/mL
same,MIC,[6],0.008 to 0.015 µg/mL
O=C(O)c1cn(C2CC2)c2cc(N3CCN(Cn4nc(CNc5ccc(N6CCN(c7ccc(F)cc7)CC6)c(F)c5)n(-c5ccccc5)c4=S)CC3)c(F)cc2c1=O,MIC,[14],< 0.24 µg/mL
same,MIC,Enterococcus faecalis [15],< 0.24 µg/mL
same,MIC,Staphylococcus aureus [16],< 0.24 µg/mL
same,MIC,Bacillus cereus [17],< 0.24 µg/mL
same,MIC,[18],< 0.24 µg/mL
same,MIC,Escherichia coli [19],< 0.24 µg/mL
same,MIC,Pseudomonas aeruginosa [20],< 0.24 µg/mL
COc1ccccc1N1CCN(Cc2nn(CN3CCN(c4cc5c(cc4F)c(=O)c(C(=O)O)cn5C4CC4)CC3)c(=S)n2-c2ccccc2)CC1,MIC,[14],< 0.24 µg/mL
same,MIC,Enterococcus faecalis [15],< 0.24 µg/mL
same,MIC,Staphylococcus aureus [16],< 0.24 µg/mL
same,MIC,Bacillus cereus [17],< 0.24 µg/mL
same,MIC,[18],< 0.24 µg/mL
same,MIC,Escherichia coli [19],< 0.24 µg/mL
same,MIC,Pseudomonas aeruginosa [20],< 0.24 µg/mL
O=C(O)c1cn(C2CC2)c2cc(N3CCN(CC(O)Cn4cc([N+](=O)[O-])nc4Cl)CC3)c(F)cc2c1=O (stereo unspecified),MIC,Escherichia coli [27],2 to 32 µg/mL
same,MIC,[28],2 to 32 µg/mL
same,MIC,[29],2 to 32 µg/mL
same,MIC,Staphylococcus aureus [30],2 to 32 µg/mL
same,MIC,Staphylococcus aureus [31],2 to 32 µg/mL
same,MIC,Klebsiella pneumoniae [32],2 to 32 µg/mL
CC1(C)S[C@@H]2[C@H](NC(=O)[C@H](N)c3ccccc3)C(=O)N2[C@H]1C(=O)O [AMPICILLIN],MIC,Escherichia coli [33],10 to 128 µg/mL
same,MIC,[14],10 to 128 µg/mL
same,MIC,Pseudomonas aeruginosa [34],10 to 128 µg/mL
same,MIC,Enterococcus faecalis [15],10 to 128 µg/mL
same,MIC,Staphylococcus aureus [16],10 to 128 µg/mL
same,MIC,Bacillus cereus [17],10 to 128 µg/mL
same,MIC,[18],10 to 128 µg/mL
same,MIC,Escherichia coli [19],3.9 to 250 µg/mL
same,MIC,Pseudomonas aeruginosa [20],3.9 to 250 µg/mL
CCOC(=O)c1cn(C2CC2)c2cc(N3CCNCC3)c(F)cc2c1=O [CIPROFLOXACIN ETHYL ESTER],logP,[35],-0.065
COc1c(N2CCNC(C)C2)c(F)cc2c(=O)c(C(=O)O)cn(C3CC3)c12 (stereo unspecified) [GATIFLOXACIN],MIC,Escherichia coli [27],0.06 to 16 µg/mL
same,MIC,[28],0.06 to 16 µg/mL
same,MIC,[29],0.06 to 16 µg/mL
same,MIC,Staphylococcus aureus [30],0.06 to 16 µg/mL
same,MIC,Staphylococcus aureus [31],0.06 to 16 µg/mL
same,MIC,Klebsiella pneumoniae [32],0.06 to 16 µg/mL
same,MIC,Bacillus subtilis [36],5 to 100 µg/mL
same,MIC,Escherichia coli [37],5 to 100 µg/mL
same,MIC,Pseudomonas aeruginosa [38],5 to 100 µg/mL
same,MIC,Paenibacillus polymyxa,5 to 100 µg/mL
same,MIC,Staphylococcus aureus [39],5 to 100 µg/mL
